# From article PMC11876671, “Investigating blood–brain barrier penetration and neurotoxicity of natural products for central nervous system drug development” (Scientific Reports, 2025)
# Counter-ions that a name gives are not always drawn.
# Experiment: in vitro
# Settings: PAMPA, PAMPA-BBB Pe
row,Compound,Papp [×10⁻⁶ cm/s]
1,COC(=O)c1c(C)cc(O)c(C)c1O [VERAMOSS],225
2,COc1cc2c(cc1OC)[C@@H]1Cc3ccc(OC)c(OC)c3CN1CC2 [TETRAHYDROPALMATINE],156
3,C=C(C)[C@@H]1CCC2=CCC[C@@H](C)[C@]2(C)C1,18
4,CC[C@]1(O)C[C@H]2CN(CCc3c([nH]c4ccccc34)[C@@](C(=O)OC)(c3cc4c(cc3OC)N(C)[C@H]3[C@@](O)(C(=O)OC)[C@H](OC(C)=O)[C@]5(CC)C=CCN6CC[C@]43[C@@H]65)C2)C1 [V[…]],21

# Same assay, conditions: PAMPA, PAMPA-BBB Pe(10^-6 cm/sec)
row,Compound,Papp [×10⁻⁶ cm/s]
1,CC(=O)OCC(=O)[C@@]1(O)CC[C@H]2[C@@H]3CCC4=CC(=O)CC[C@]4(C)[C@H]3[C@@H](O)C[C@@]21C [HYDROCORTISONE ACETATE],< 1
2,O=C(O)c1cccnc1 [NICOTINIC ACID],< 1
3,CN1c2c(nc(N)[nH]c2=O)NC[C@@H]1CNc1ccc(C(=O)N[C@@H](CCC(=O)O)C(=O)O)cc1 [LEVOMEFOLATE],< 1
4,CO[C@@H]1[C@H](O)[C@@H](CO)O[C@H]1n1cnc2c(=O)[nH]c(N)nc21 [2'-O-METHYLGUANOSINE],< 1
5,CN(C)[C@@H]1C(O)=C(C(N)=O)C(=O)[C@@]2(O)C(O)=C3C(=O)c4c(O)ccc(Cl)c4[C@@H](O)[C@H]3C[C@@H]12 [DEMECLOCYCLINE HYDROCHLORIDE],1.5
6,O=c1cccc2n1C[C@@H]1CNC[C@H]2C1 [CYTISINE],< 1
7,C[n+]1cccc(C(=O)[O-])c1 [TRIGONELLINE],< 1

# Same assay, conditions: PAMPA, PAMPA-BBB Pe(10^-6 cm/sec), Table S3: compounds exhibiting low PAMPA-BBB permeability
row,Compound,Papp [×10⁻⁶ cm/s]
1,COc1ccc(O[C@@H]2O[C@H](CO)[C@H](O)[C@H](O)[C@H]2O)cc1 [4-METHOXYPHENYL .BETA.-D-GLUCOSIDE],1.3
2,O=C(CCc1ccc(O)cc1)c1c(O)cc(O)cc1O [PHLORETIN],2.2
3,CSC[C@H]1O[C@@H](n2cnc3c(N)ncnc32)[C@H](O)[C@@H]1O [METHYLTHIOADENOSINE],< 1
4,Nc1nc2c(ncn2[C@@H]2O[C@H](COP(=O)(O)OP(=O)(O)O)[C@@H](O)[C@H]2O)c(=O)[nH]1 [Guanosine pyrophosphate],< 1
5,C=C1CC[C@H](O)C/C1=C/C=C1\CCC[C@]2(C)[C@@H]([C@H](C)/C=C/[C@H](C)C(C)C)CC[C@@H]12 [ERGOCALCIFEROL],< 1
6,C[C@@H]1CC[C@]2(C)CC[C@]3(C)C(=CC(=O)C4[C@@]5(C)CC[C@@H](O)[C@](C)(C(=O)O)C5CC[C@]43C)C2[C@H]1C (stereo partly shown) [KETO-B-BOSWELLIC ACID],< 1
7,O=C(O)c1cccc(O)c1O [PYR[…]],< 1
8,O=c1[nH]c(=O)c2ncn([C@@H]3O[C@H](CO)[C@@H](O)[C@H]3O)c2[nH]1 [XANTHOSINE],< 1
9,CC(=O)O[C@@]12C[C@@H](C)[C@@]3(O)[C@@H](C=C(CO)C[C@]4(O)C(=O)C(C)=C[C@@H]34)[C@@H]1C2(C)C [PROSTRATIN],< 1
10,Nc1ncnc2c1ccn2[C@@H]1O[C@H](CO)[C@@H](O)[C@H]1O [TUBERCIDIN],2.1
11,O=c1c(O[C@@H]2O[C@H](CO)[C@H](O)[C@H](O)[C@H]2O)c(-c2ccc(O)c(O)c2)oc2cc(O)cc(O)c12 [HYPEROSIDE],1.6
12,"NC(Cc1cc(O)c(O)cc1O)C(=O)O (racemic) [2,4,5-TRIHYDROXY-DL-PHENYLALANINE]",9.3
13,CC(=O)O[C@@H]1C[C@H]2C(C)(C)C(=O)C=C[C@]2(C)[C@H]2CC[C@@]3(C)[C@H](c4ccoc4)OC(=O)[C@H]4O[C@]43[C@@]21C [GEDUNIN],< 1
14,Oc1ccc2c(c1)OC[C@]1(O)Cc3cc(O)c(O)cc3[C@H]21 [BRAZILIN],1.9
15,O=c1c(-c2ccc(O)cc2)coc2c([C@@H]3O[C@H](CO)[C@@H](O)[C@H](O)[C@H]3O)c(O)ccc12 [PUERARIN],< 1
16,Nc1nc(Cl)nc2c1ncn2[C@@H]1O[C@H](CO)C(O)[C@H]1O (stereo partly shown) [2-CHLOROADENOSINE],< 1
17,"COC1=CC(=O)C=C(OC)C1=O [2,6-DIMETHOXY-1,4-BENZOQUINONE]",< 1
18,O=C(O)c1ccc(O)c(O)c1 [PROT[…]],< 1
19,CC/C=C\C/C=C\C/C=C\C/C=C\C/C=C\CCCC(=O)OCC [ICOSAPENT ETHYL],< 1
20,O=c1c(O)c(-c2ccc(O)c(O)c2)oc2cc(O)cc(O)c12 [QUERCETIN],< 1

row,Compound,Papp [×10⁻⁶ cm/s]
1,c1coc(CNc2ncnc3[nH]cnc23)c1 [KINETIN],4
2,N[C@@H](Cc1cc(I)c(O)c(I)c1)C(=O)O [L-DIIODOTYROSINE],< 1
3,O=C(O)Cc1c[nH]c2ccc(O)cc12 [HYDROXYIN[…]],< 1
4,O=C(/C=C/c1ccc(O)c(O)c1)O[C@@H]1C[C@](O)(C(=O)O)C[C@@H](O)[C@H]1O [CHLOROGENIC ACID],< 1
5,[O-][n+]1ccccc1SSc1cccc[n+]1[O-] [[…]],< 1
6,CC(C)=CCC/C(C)=C/COc1c2ccoc2cc2oc(=O)ccc12 [BERGAMOTTIN],5.8
7,O=c1cc(-c2ccc(O)cc2)oc2cc(O)ccc12 [K[…]],2.9
8,CSCCCN=C=S [IBERVERIN],9.7
9,COc1cc(C(O)C(=O)O)ccc1O (stereo not shown) [[…] ACID],5.6
10,COC(=O)C1=CO[C@@H](O[C@@H]2O[C@H](CO)[C@@H](O)[C@H](O)[C@H]2O)[C@@H]2[C@@H](C)[C@@H](O)C[C@H]12 [LOGANIN],< 1
11,O=C(O)c1ccco1 [2-FURANOIC ACID],< 1
12,CC[C@H]1CN2CC[C@]3(C(=O)Nc4ccccc43)[C@@H]2C[C@@H]1/C(=C\OC)C(=O)OC [RHYNCHOPHYLLINE],6.5
13,O=c1c(O)c(-c2ccc(O)cc2O)oc2cc(O)cc(O)c12 [MORIN],1.5
14,Cc1cc(OC(=O)c2c(C)cc(O)cc2O)cc(O)c1C(=O)O [LECANORIC ACID],< 1
15,O=c1c(-c2ccc(O)cc2)coc2cc(O[C@@H]3O[C@H](CO)[C@@H](O)[C@H](O)[C@H]3O)ccc12 [DAIDZIN],< 1
16,O=c1c(O)cc([C@H]2Oc3cc(O)cc(O)c3C[C@H]2O)cc2c([C@H]3Oc4cc(O)cc(O)c4C[C@@H]3O)cc(O)c(O)c12 [THEAFLAVINE],< 1
17,O=C(Nc1ccccc1C(=O)O)c1ccccc1 [[…] B],1.9
18,Cn1c(=O)[nH]c2ncn(C)c2c1=O [PARAXANTHINE],< 1
19,O=c1cc(-c2ccc(O)cc2)oc2c([C@@H]3O[C@H](CO)[C@@H](O)[C@H](O)[C@H]3O)c(O)cc(O)c12 [VITEXIN],< 1
20,O=c1cc(-c2ccc(O)cc2)oc2cc(O[C@@H]3O[C@H](CO)[C@@H](O)[C@H](O)[C@H]3O[C@@H]3OC[C@](O)(CO)[C@H]3O)cc(O)c12 [APIIN],2

# Same assay, conditions: PAMPA, PAMPA-BBB Pe, Table S2: compounds exhibiting moderate to high PAMPA-BBB permeability
row,Compound,Papp [×10⁻⁶ cm/s]
1,CCCCCCCCC(=O)NCc1ccc(O)c(OC)c1 [NONIVAMIDE],125
2,O=C(/C=C/c1ccc(O)cc1)c1ccc(O)cc1O [TRIHYDROXYCHALCONE],169
3,CCCC[C@@H](C)/C=C(C)/C=C(\C)C(=O)NC1=C[C@@](O)(/C=C/C=C/C=C/C(=O)NC2=C(O)CCC2=O)[C@@H]2O[C@@H]2C1=O [MANUMYCIN A],64
4,C=C[C@H]1CN2CCc3c([nH]c4ccccc34)[C@H]2C[C@@H]1/C(=C\OC)C(=O)OC [HIRSUTEINE],118
5,c1ccc2cnccc2c1 [ISOQUINOLINE],157
6,C/C(=C\COc1c2ccoc2cc2oc(=O)ccc12)CCC(O)C(C)(C)O (stereo not shown) [BERGAMOTTIN DIHYDROXYBERGAMOTTIN],55
7,N[C@@H](Cc1cc(I)c(Oc2cc(I)c(O)c(I)c2)c(I)c1)C(=O)O [LEVOTHYROXINE],83
8,Cn1cccc1-c1cccnc1 [NICOTYRINE],102
9,CC(=O)[C@H]1CC[C@H]2[C@@H]3C[C@H](C)C4=CC(=O)CC[C@]4(C)[C@H]3[C@@H](O)C[C@]12C [MEDRYSONE],72
10,CC(C)=CCC[C@@H](C)[C@H]1CC[C@@]2(C)C3=C(CC[C@]12C)[C@@]1(C)CC[C@H](O)C(C)(C)[C@@H]1CC3 [LANOSTEROL],13
11,C[C@]12CC[C@H]3[C@@H](CCC4=CC(=O)CC[C@@]43C)[C@@H]1CC[C@@H]2C(=O)CO [DESOXYCORTICOSTERONE],65
12,COc1cc2c(cc1OC)OC(C)(C)C=C2 [PRECOCENE II],159
13,C[C@H]1COC2=C1C(=O)C(=O)c1c2ccc2c1CCCC2(C)C [[…]],12
14,O=c1c2ccccc2nc2n1CCc1c-2[nH]c2ccccc12 [RUTECARPINE],151
15,Cc1ccc(C(C)C)c(O)c1 [THYMOL],168
16,COc1cc2c(O)c3c(c(-c4ccc5c(c4)OCO5)c2cc1OC)C(=O)OC3 [DIPHYLLIN],187

row,Compound,Papp [×10⁻⁶ cm/s]
1,CCCCCc1cccc(=O)o1 [6-PENTYL-2H-PYRAN-2-ONE],52
2,CC(=O)c1ccc[nH]1 [METHYL PYRROL-2-YL KETONE],28
3,COC(=O)c1ccccc1OC [METHYL O-ANISATE],120
4,CC(=O)[C@@]1(O)CC[C@H]2[C@@H]3CCC4=CC(=O)CC[C@]4(C)[C@H]3CC[C@@]21C [HYDROXYPROGESTERONE],110
5,COc1ccc(-c2cc(=O)c3c(OC)c(OC)c(OC)cc3o2)cc1OC [SINENSETIN],36
6,C/C=C(\C)C(=O)O[C@@H]1c2c(ccc3ccc(=O)oc23)OC(C)(C)[C@@H]1OC(C)=O [PTERYXINE],205
7,COc1cccc(C=O)c1OC,107
8,COc1ccc(-c2cc(=O)c3c(O)c(OC)c(OC)cc3o2)cc1O [EUPATORIN],281
9,O=C1c2c(O)cc(O)cc2O[C@@H](c2ccc(O)cc2)[C@@H]1O [AROMADENDRINE],58
10,COC(=O)c1ccc(OC)cc1 [METHYL ANISATE],103
11,COC(=O)C1=CO[C@@H](C)[C@H]2CN3CCc4c([nH]c5ccccc45)[C@@H]3C[C@H]12 [RAUBASINE HYDROCHLORIDE],125
12,CCCOc1ccc2[nH]cc(C3=CCNCC3)c2n1,18
13,O=c1cc(N2CCOCC2)oc2c(-c3cccc4c3sc3ccccc34)cccc12,102
14,C[C@]12CC[C@H](O)C[C@H]1CC[C@@H]1[C@@H]2CC[C@]2(C)[C@@H](c3ccc(=O)oc3)C[C@H]3O[C@]132 [BUFOGENIN],115
15,O=c1c(-c2ccc(O)cc2)coc2cc(O[C@@H]3O[C@H](CO)[C@@H](O)[C@H](O)[C@H]3O)cc(O)c12 [GENISTIN],29
